Results reported in patent US12274693B2, “Anti-proprotein convertase subtilisin kexin type 9 (anti-PCSK9) nano-formulation of compounds and methods of using the same” (SHIFA BIOMEDICAL CORPORATION, priority 2018, dated 2025).
Values joined by “and” are separate entries in the source; they are usually repeats but may differ in a detail not shown here. Identical values can stand only once. Like-named read-outs stand apart in the source and are kept apart here.

How the values were obtained:
PCSK9 = assay: Test for secreted PCSK9 (synthesis, processing and secretion); assay type: cell-based; details: in the cells or into the media
Description: Experimental details are provided hereinabove and in WO 2017/222953.

[1] = Lipophilicity and solubility of the compounds; assay type: physicochemical
Protocol: [formula] The size distribution of the nanoparticles in aqueous dispersions was determined using a Malvern zeta sizer (Malvern Instrumentation Co, Westborough, MA). 50 mg of the lyophilized nanoparticles were re-suspended in 2 mL of water. This nanoparticles solution was placed into a 3 mL, 4-sided, clear plastic cuvette, and measured directly. Shown are the HPLC chromatograms of SBC-115,418 used to construct the standard curve at different concentrations. Calibrator series of SBC-115,418 were prepared in DMSO by a 2-fold series dilution including 3.9, 7.8, 15.6, 31.5, 62.5, 125, and 250 μg/mL (left).
(§1) Testing of SBC-115,418 and analogs was performed in a binding assay to determine their ability to inhibit the PCSK9/LDLR interaction. SBC-115,418 inhibited the PCSK9/LDLR interaction with an IC50 in the sub-micro-molar range. Experimental details are provided hereinabove and in WO 2017/222953. […] Given the lipophilicity of lead compound SBC-115,418, a solubility study was undertaken to look at its effects on binding (FIG. 4B). An in vitro ELISA binding assay was performed at different concentrations (0.01 μM-100 μM) of SBC-115,418 under different solubilization conditions.

[2] = biological target: T1, PCSK9/LDLR interaction (His-tagged PCSK9, recombinant LDLR-AB domain) (Homo sapiens, UniProt Q8NBP7); assay: In vitro ELISA binding assay (Circulex) for inhibition of the PCSK9/LDLR interaction; details: for IC50 for inhibition of the PCSK9/LDLR interaction, range in words: FIG. 4A
T1 construct: purchased Circulex
Protocol: FIG. 4A provides a graph of the effect of SBC-115,418, SBC-115,433, SBC-115,448, and SBC-115,462 on the PCSK9/LDLR interaction. An in vitro ELISA assay kit was utilized (Circulex). For screening inhibitors of the PCSK9/LDLR interaction, different concentrations (0.01 nM-100 μM) of selected compounds were incubated with His-tagged PCSK9 and then added to wells that were pre-coated with recombinant LDLR-AB domain. After incubation, the plate was washed and the amount of recombinant His-tagged PCSK9 was measured using the biotinylated anti-His-tag and horseradish peroxidase conjugated Streptavidin and quantitated using a BioTek Synergy™ 2 plate reader. The effect of each compound on the PCSK9 binding to the recombinant LDLR-AB domain was calculated.
FIG. 4B provides a graph of the effect of SBC-115,418 on the PCSK9/LDLR interaction under increased solubilization conditions (10% DMSO) (418s). An in vitro ELISA assay (Circulex) was utilized. Different concentrations ([…]-100 μM) of SBC-115,418 in DMSO were incubated with His-tagged PCSK9 and then added to wells that were pre-coated with recombinant LDLR-AB domain as described in FIG. 4A.
as §1

HepG2 cells = assay: Uptake of fluorescent Dil-LDL in HepG2 cells; assay type: cell-based; details: 10 μM
Description: FIG. 5 provides a graph of the effect of SBC-115,418, SBC-115,433, SBC-115,448, and SBC-115,462 on the uptake of fluorescent Dil-LDL in HepG2 Cells. The compounds were validated for their ability to increase uptake of Fluorescent Dil-LDL in HepG2 cells.

LDLR = assay: Cell-based assay for LDLR upregulation; details: compared to cells treated with same volume of DMSO
[3] = ELISA, read-out: in vitro inhibition of the PCSK9/LDLR interaction (IC50)

T1 sequence (Q8NBP7 153-692): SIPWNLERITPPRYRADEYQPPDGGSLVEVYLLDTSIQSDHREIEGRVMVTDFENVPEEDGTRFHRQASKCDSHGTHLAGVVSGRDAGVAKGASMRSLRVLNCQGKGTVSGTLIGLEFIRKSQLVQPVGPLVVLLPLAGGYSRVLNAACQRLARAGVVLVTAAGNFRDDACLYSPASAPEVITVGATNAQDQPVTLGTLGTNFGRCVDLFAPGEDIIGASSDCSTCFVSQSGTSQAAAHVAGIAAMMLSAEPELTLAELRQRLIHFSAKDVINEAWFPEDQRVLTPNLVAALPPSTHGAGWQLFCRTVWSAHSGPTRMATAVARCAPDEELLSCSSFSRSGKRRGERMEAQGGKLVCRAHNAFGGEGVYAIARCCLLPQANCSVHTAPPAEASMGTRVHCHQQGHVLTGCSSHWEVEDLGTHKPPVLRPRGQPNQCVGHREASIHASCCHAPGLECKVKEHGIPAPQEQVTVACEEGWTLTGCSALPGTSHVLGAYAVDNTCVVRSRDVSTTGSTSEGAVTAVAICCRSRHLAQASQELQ
T1 sequence (Q8NBP7 31-152 partner limits assumed): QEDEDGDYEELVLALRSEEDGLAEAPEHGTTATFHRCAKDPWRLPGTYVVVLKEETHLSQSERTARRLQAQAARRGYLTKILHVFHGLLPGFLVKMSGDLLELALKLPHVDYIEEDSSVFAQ

Row | SMILES | effect on PCSK9 synthesis, processing and secretion (PCSK9) | solubility ([1]; 80% acetonitrile, organic solvent or mixture) [µg/mL] | IC50 for inhibition of the PCSK9/LDLR interaction, range in words ([2]; ELISA) | IC50 [2, 3] | IC50 ([2]; increased solubilization conditions (10% DMSO), FIG. 4B, read-out: IC50 of in vitro binding under improved solubility conditions) [µM] | Fluorescent Dil-LDL uptake (HepG2 cells) | level of LDLR versus DMSO control (LDLR) | logP [1] | solubility relative to SBC-115,418 [1]
1 | COc1ccc2oc(C(=O)Nc3ccc(C(=O)Nc4ccc(-c5nc6ccccc6o5)cc4)cc3)c(C)c2c1 [SBC-115,418] | no significant effect | < 100 | sub-micro-molar | < 5 µM | 0.05 | significant increase | significant upregulation |  | 
2 | O=C(Nc1ccc(-c2ncco2)cc1)c1ccc(NC(=O)c2cc3ccccc3o2)cc1 [SBC-115,433] | no significant effect |  | sub-micro-molar | < 5 µM |  | increase | significant upregulation |  | 
3 | O=C(Nc1ccc(C(=O)Nc2ccc(-c3ncco3)cc2)c(F)c1)c1cc2ccccc2o1 [SBC-115,448] | no significant effect |  | low micro-molar | < 5 µM |  | increase | significant upregulation |  | 
4 | COc1ccc2oc(C(=O)Nc3ccc(C(=O)Nc4ccc(-c5ncco5)cc4)cc3)c(C)c2c1 [SBC-115,462] | no significant effect |  | low micro-molar | < 5 µM |  | significant increase | significant upregulation |  | 
5 | COc1ccc2oc(C(=O)Nc3ccc(C(=O)Nc4ccc(-c5nc6ccccc6[nH]5)cc4)cc3)c(C)c2c1 [SBC-115,477] | no significant effect |  | sub-micro-molar | < 5 µM and 0.19 µM |  |  | upregulation | 4.5 | increased solubility
